{"source": "PubChem BioAssay (NCI)", "experiment_in_all_cases": "NCI-60 cell line screen, 48 h", "key": {"SF-295 CNS": {"tested_on": "SF-295 CNS"}, "RXF 393 renal": {"tested_on": "RXF 393 renal"}, "MOLT-4 leukemia": {"tested_on": "MOLT-4 leukemia"}, "SK-MEL-5 melanoma": {"tested_on": "SK-MEL-5 melanoma"}, "BT-549 breast": {"tested_on": "BT-549 breast"}, "IGROV1 ovarian": {"tested_on": "IGROV1 ovarian"}, "MDA-MB-231 breast": {"tested_on": "MDA-MB-231 breast"}, "HCC-2998 colon": {"tested_on": "HCC-2998 colon"}, "HOP-92 NSCLC": {"tested_on": "HOP-92 NSCLC"}, "UO-31 renal": {"tested_on": "UO-31 renal"}, "DU-145 prostate": {"tested_on": "DU-145 prostate"}, "OVCAR-5 ovarian": {"tested_on": "OVCAR-5 ovarian"}, "HCT-116 colon": {"tested_on": "HCT-116 colon"}, "EKVX NSCLC": {"tested_on": "EKVX NSCLC"}, "SF-539 CNS": {"tested_on": "SF-539 CNS"}, "OVCAR-8 ovarian": {"tested_on": "OVCAR-8 ovarian"}, "SNB-19 CNS": {"tested_on": "SNB-19 CNS"}, "HS 578T breast": {"tested_on": "HS 578T breast"}, "SN12C renal": {"tested_on": "SN12C renal"}, "SNB-75 CNS": {"tested_on": "SNB-75 CNS"}, "NCI-H23 lung": {"tested_on": "NCI-H23 lung"}, "HOP-62 NSCLC": {"tested_on": "HOP-62 NSCLC"}, "K-562 leukemia": {"tested_on": "K-562 leukemia"}, "SW-620 colon": {"tested_on": "SW-620 colon"}, "M14 melanoma": {"tested_on": "M14 melanoma"}, "NCI-H226 lung": {"tested_on": "NCI-H226 lung"}, "CCRF-CEM leukemia": {"tested_on": "CCRF-CEM leukemia"}, "HCT-15 colon": {"tested_on": "HCT-15 colon"}, "SR leukemia": {"tested_on": "SR leukemia"}}, "note": "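Growth conditions: 96-well plates. Treatment: test compound, 48 hours, 5 concentrations. Analysis: linear interpolation between bracketing concentrations; unreached endpoints set to highest concentration. Abbreviation: GI50, concentration required for 50% inhibition of growth. TGI: concentration producing complete growth inhibition.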"}
{"smiles": "C#C[C@]1(O)CC[C@H]2[C@@H]3CC=C4c5sc(-c6ccc(C)cc6)nc5CC[C@]4(C)[C@H]3CC[C@@]21C", "values": [{"measurement": "GI50", "setting": "SF-295 CNS", "result": 2.69, "unit": "µM"}, {"measurement": "TGI", "setting": "SF-295 CNS", "result": "> 100", "unit": "µM"}, {"measurement": "GI50", "setting": "RXF 393 renal", "result": 4.29, "unit": "µM"}, {"measurement": "TGI", "setting": "RXF 393 renal", "result": "> 100", "unit": "µM"}, {"measurement": "GI50", "setting": "MOLT-4 leukemia", "result": 45.2, "unit": "µM"}, {"measurement": "TGI", "setting": "MOLT-4 leukemia", "result": "> 100", "unit": "µM"}, {"measurement": "GI50", "setting": "SK-MEL-5 melanoma", "result": "> 100", "unit": "µM"}, {"measurement": "TGI", "setting": "SK-MEL-5 melanoma", "result": "> 100", "unit": "µM"}, {"measurement": "GI50", "setting": "BT-549 breast", "result": 25.9, "unit": "µM"}, {"measurement": "TGI", "setting": "BT-549 breast", "result": "> 100", "unit": "µM"}, {"measurement": "GI50", "setting": "IGROV1 ovarian", "result": "> 100", "unit": "µM"}, {"measurement": "TGI", "setting": "IGROV1 ovarian", "result": "> 100", "unit": "µM"}, {"measurement": "GI50", "setting": "MDA-MB-231 breast", "result": "> 100", "unit": "µM"}, {"measurement": "TGI", "setting": "MDA-MB-231 breast", "result": "> 100", "unit": "µM"}, {"measurement": "GI50", "setting": "HCC-2998 colon", "result": "> 100", "unit": "µM"}, {"measurement": "TGI", "setting": "HCC-2998 colon", "result": "> 100", "unit": "µM"}, {"measurement": "GI50", "setting": "HOP-92 NSCLC", "result": 36.5, "unit": "µM"}, {"measurement": "TGI", "setting": "HOP-92 NSCLC", "result": "> 100", "unit": "µM"}, {"measurement": "GI50", "setting": "UO-31 renal", "result": 28.9, "unit": "µM"}, {"measurement": "TGI", "setting": "UO-31 renal", "result": "> 100", "unit": "µM"}, {"measurement": "GI50", "setting": "DU-145 prostate", "result": "> 100", "unit": "µM"}, {"measurement": "TGI", "setting": "DU-145 prostate", "result": "> 100", "unit": "µM"}, {"measurement": "GI50", "setting": "OVCAR-5 ovarian", "result": "> 100", "unit": "µM"}, {"measurement": "TGI", "setting": "OVCAR-5 ovarian", "result": "> 100", "unit": "µM"}, {"measurement": "GI50", "setting": "HCT-116 colon", "result": 18.3, "unit": "µM"}, {"measurement": "TGI", "setting": "HCT-116 colon", "result": "> 100", "unit": "µM"}, {"measurement": "GI50", "setting": "EKVX NSCLC", "result": "> 100", "unit": "µM"}, {"measurement": "TGI", "setting": "EKVX NSCLC", "result": "> 100", "unit": "µM"}, {"measurement": "GI50", "setting": "SF-539 CNS", "result": 2.31, "unit": "µM"}, {"measurement": "TGI", "setting": "SF-539 CNS", "result": "> 100", "unit": "µM"}, {"measurement": "GI50", "setting": "OVCAR-8 ovarian", "result": "> 100", "unit": "µM"}, {"measurement": "TGI", "setting": "OVCAR-8 ovarian", "result": "> 100", "unit": "µM"}, {"measurement": "GI50", "setting": "SNB-19 CNS", "result": "> 100", "unit": "µM"}, {"measurement": "TGI", "setting": "SNB-19 CNS", "result": "> 100", "unit": "µM"}, {"measurement": "GI50", "setting": "HS 578T breast", "result": 4.17, "unit": "µM"}, {"measurement": "TGI", "setting": "HS 578T breast", "result": "> 100", "unit": "µM"}, {"measurement": "GI50", "setting": "SN12C renal", "result": "> 100", "unit": "µM"}, {"measurement": "TGI", "setting": "SN12C renal", "result": "> 100", "unit": "µM"}, {"measurement": "GI50", "setting": "SNB-75 CNS", "result": 6.29, "unit": "µM"}, {"measurement": "TGI", "setting": "SNB-75 CNS", "result": "> 100", "unit": "µM"}, {"measurement": "GI50", "setting": "NCI-H23 lung", "result": "> 100", "unit": "µM"}, {"measurement": "TGI", "setting": "NCI-H23 lung", "result": "> 100", "unit": "µM"}, {"measurement": "GI50", "setting": "HOP-62 NSCLC", "result": "> 100", "unit": "µM"}, {"measurement": "TGI", "setting": "HOP-62 NSCLC", "result": "> 100", "unit": "µM"}, {"measurement": "GI50", "setting": "K-562 leukemia", "result": 9.35, "unit": "µM"}, {"measurement": "TGI", "setting": "K-562 leukemia", "result": "> 100", "unit": "µM"}, {"measurement": "GI50", "setting": "SW-620 colon", "result": "> 100", "unit": "µM"}, {"measurement": "TGI", "setting": "SW-620 colon", "result": "> 100", "unit": "µM"}, {"measurement": "GI50", "setting": "M14 melanoma", "result": 30.6, "unit": "µM"}, {"measurement": "TGI", "setting": "M14 melanoma", "result": "> 100", "unit": "µM"}, {"measurement": "GI50", "setting": "NCI-H226 lung", "result": "> 100", "unit": "µM"}, {"measurement": "TGI", "setting": "NCI-H226 lung", "result": "> 100", "unit": "µM"}, {"measurement": "GI50", "setting": "CCRF-CEM leukemia", "result": "> 100", "unit": "µM"}, {"measurement": "TGI", "setting": "CCRF-CEM leukemia", "result": "> 100", "unit": "µM"}, {"measurement": "GI50", "setting": "HCT-15 colon", "result": 12.8, "unit": "µM"}, {"measurement": "TGI", "setting": "HCT-15 colon", "result": "> 100", "unit": "µM"}, {"measurement": "GI50", "setting": "SR leukemia", "result": "> 100", "unit": "µM"}, {"measurement": "TGI", "setting": "SR leukemia", "result": "> 100", "unit": "µM"}]}
